# Source: patent publication US20080207522A1, “Antimicrobial Peptides” (priority 2004, published 2008)
# Where “and” joins values, the source holds several entries; their conditions need not be identical. Equal entries are not always repeated. Where two headings read alike, the source gives them in different places. Ends that are not written are not given here.
# Assays:
# Escherichia coli UB1005 = tested on: Escherichia coli UB1005
# Experimental: (§1) Minimal inhibitory concentration (MIC) determination. The MICs of the peptides were measured using a modified broth microdilution method in Mueller Hinton (MH) medium. Wu et al., J. Biol. Chem. 274: 29-35, 1999. Briefly, the peptides were dissolved and stored in glass vials. The assay was performed in sterile 96-well polypropylene microtitre plates were used. Serial dilutions of the peptides to be assayed were performed in 0.01% acetic acid (Fisher) containing 0.2% bovine serum albumin (Boehringer Mannheim GmbH) at 10× the desired final concentration. Ten microlitres of the 10× peptides were added to each well of a 96-well polypropylene plate containing 90 μl of MH media per well. Bacteria were added to the plate from an overnight culture at 2-7×10^5 colony forming units/ml and incubated over night at 37° C. The MIC was taken as the concentration at which no growth was observed.
# (§2) Strains. For the killing assay a mini-Tn5-lux mutant in Pseudomonas aeruginosa H103 was used. The strain is called H1001 and contains a fliC::luxCDABE transcriptional fusion resulting in constitutive expression of luciferase. The bacterial strains used for the antimicrobial activity assays included Escherichia coli UB1005 (F-, nalA37, metB1), a wild-type Salmonella enterica ssp. Typhimurium (S. Typhimurium), wild-type Pseudomonas aeruginosa PAO1 strain H103, Enterococcus faecalis ATCC29212, Staphylococcus aureus ATCC25923, and a clinical isolate of Staphylococcus epidermidis obtained from Dr. D. Speert (Department of Medicine, University of British Columbia). Antifungal activity was tested using a lab isolate of Candida albicans obtained from Dr. B. Dill (Department of Microbiology and Immunology, University of British Columbia).
# (§3) In addition, the parent peptide Bac2A was included in these studies as a standard. The minimal inhibitory concentrations (MIC) were determined for the important medical pathogens Pseudomonas aeruginosa, Escherichia coli, Salmonella typhimurium, Staphylococcus aureus, Staphylococcus epidermidis, Enterococcus faecaelis, and the yeast Candida albicans in Mueller-Hinton media.
# [1] = tested on: Pseudomonas aeruginosa PAO1 strain H103
# Experimental: as §1, §2, §3
# [2] = tested on: Enterococcus faecalis ATCC29212
# Experimental: as §1, §2, §3
# [3] = tested on: Staphylococcus aureus ATCC25923
# Experimental: as §1, §2, §3
# [4] = tested on: Salmonella enterica ssp. Typhimurium
# Experimental: as §1, §2, §3
# [5] = tested on: Staphylococcus epidermidis
# Experimental: as §1, §2, §3
# Candida albicans = tested on: Candida albicans
# Experimental: as §1, §2, §3
# [6] = tested on: Staphylococcus aureus cells; test: Membrane depolarization with membrane potential-sensitive dye diSC35; type: cell-based; settings: 20 μg/ml of peptides, diSC35 release, FIG. 4
# Experimental: FIG. 4 is a graphical representation showing the mechanism of action of peptides assessed by measuring the ability to depolarize Staphylococcus aureus cells using the membrane potential-sensitive dye diSC35. Either 20 μg/ml of peptides or, as a control, 29 μg/ml of gramicidin S (Gram S) were added. Lines are smoothed using a polynomial (to the 6th power) function.
# [7] = tested on: Pseudomonas aeruginosa strain H1001; test: Assay for the cleaved (free, soluble) peptides from cellulose support, luminescence killing assay; type: cell-based; set-up: key: 1: Peptides showing stronger killing than Bac2A at a 4 to 8-fold higher dilution; Peptides showing stronger killing compared to that of Bac2A at a 4-fold higher dilution; 3: Peptides similar to Bac2A; 4: Peptides similar to Bac2A at the highest concentration but demonstrating weaker killing at a 2-fold dilution; 5: Peptides giving very weak or no killing at a 2-fold dilution; 6: Peptides with weak killing activity at the highest concentration
# Method in brief: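 Cellulose-synthesized peptides (amidated C-terminus, two β-alanines) cleaved by ammonia, released from punched spots 30 min at 37 °C, then serially diluted. P. aeruginosa H1001 (constitutive fliC::luxCDABE) overnight culture diluted 1:500 in LB or 100 mM Tris pH 7.3/20 mM glucose. Killing followed as time-dependent luminescence loss at 37 °C.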
# [8] = tested on: Pseudomonas aeruginosa strain H1001 fliC::luxCDABE; test: Luminescence-based assay for the non-cleaved (bound) peptides on cellulose membranes; type: cell-based
# Method in brief: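 Peptides remained bound to cellulose spots, which were ethanol-washed and equilibrated in 100 mM Tris pH 7.3. Constitutively lux-expressing P. aeruginosa (OD600 0.35 culture diluted 1:25) added in 10 mM Tris-HCl pH 7.3, 20 mM glucose at 37° C. Luminescence (RLU) followed over 14 time points; peptides binned into six activity classes.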
# [9] = tested on: THP-1 macrophage-like cells; settings: at 100 μg/ml
# Experimental: THP1 cells were cultured in RPMI 1640 medium (supplemented with 10% (v/v) FCS, 1% L-glutamine, and 1 nM sodium pyruvate) in E-toxa-clean (Sigma-Aldrich, Oakville, Ontario, Canada)-washed, endotoxin-free bottle. THP1 cells were counted and 250 μl per well of 2-4×10^4 cells/ml were transferred into a 96 well tissue cultured treated polystyrene microtiterplate (Beckton Dickinson, Franklin Lakes, USA). In addition PMA was added (1.3 nM) and the cells were incubated for three days. After three days the medium were exchanged and Pseudomonas aeruginosa LPS and the peptides were added. The incubation time was four hours and the supernatant was frozen at −20° C. The cells were stained with Tryphan Blue for 2 minutes and washed with PBS two times. The viability of the cells was determined by counting the stained cells over the unstained.
# Cytotoxicity was assessed using PMA-treated, human macrophage THP-1 cell line (FIG. 5).
substance,measurement,setting,value
Bac297: peptide of Table 6 (substitution peptides and truncation variants of Bac2A); sequence in Table 1 (RLARICVIRVAR),MIC E. coli,Escherichia coli UB1005; Table 6,n.s.
same,MIC P. aerug,[1]; Table 6,n.s.
same,MIC E. faecalis,[2]; Table 6,n.s.
same,MIC S. aureus,[3]; Table 6,n.s.
same,MIC S. Typhim.,[4]; Table 6,n.s.
same,MIC S. epi.,[5]; Table 6,n.s.
same,MIC C. albicans,Candida albicans; Table 6,n.s.
"RLARIVVIRVAR-NH2 [Bac2A, reference compound]",MIC E. coli,"Escherichia coli UB1005; Table 4a, Mueller-Hinton media, average of three measurements",17 µg/mL
same,MIC E. coli,Escherichia coli UB1005; Table 6,17 µg/mL
same,difference in MIC between high and low Mg2+ conditions,"[1]; P. aeruginosa, Table 5",4 fold
same,MIC P. aerug,[1]; PAO1,50 µg/mL
same,MIC P. aeruginosa,[1]; PAO1,50 µg/mL
same,MIC P. aeruginosa Muller Hinton Media,[1]; PAO1,54 µg/mL
same,MIC P. aeruginosa With 10 μM Mg,[1]; PAO1,18 µg/mL
same,MIC P. aeruginosa With 2 mM Mg,[1]; PAO1,73 µg/mL
same,MIC S. Typhim.,[4]; ssp. Typhimurium,34 µg/mL
same,MIC S. typhimurium,[4]; ssp. Typhimurium,34 µg/mL
same,MIC S. epi.,[5],4 µg/mL
same,MIC S. epidermidis,[5],4 µg/mL
same,ability to depolarize the membrane of S. aureus,[6],able to depolarize the membrane of S. aureus very quickly
same,Soluble Class,"[7]; Table 5, free peptides",3
same,Activity Class Soluble,"[7]; free (cleaved) peptides, killing relative to Bac2A",3
same,Luminescence at the given time in minutes: 0,"[8]; cellulose-bound peptide, 0 min, listed as Bac001",4374 RLU and 4041 RLU and 4234 RLU and 4425 RLU and 4530 RLU
same,Luminescence at the given time in minutes: 20,"[8]; cellulose-bound peptide, 20 min, listed as Bac001",6729 RLU and 6352 RLU and 6373 RLU and 6323 RLU and 6411 RLU
same,Luminescence at the given time in minutes: 40,"[8]; cellulose-bound peptide, 40 min, listed as Bac001",2607 RLU and 2249 RLU and 1840 RLU and 2721 RLU
same,Luminescence at the given time in minutes: 100,"[8]; cellulose-bound peptide, 100 min, listed as Bac001",48 RLU and 35 RLU and 50 RLU and 53 RLU and 57 RLU
same,Activity Class bound,[8]; uncleaved cellulose-bound peptides,3 (Peptides similar to Bac2A resulting in lux values of less than 500 after 240 min.)
same,inhibition of light production (killing) over 10 consecutive cycles,"[8]; uncleaved peptide spots re-used 10 times, 40 h exposure to bacteria per cycle",very similar inhibition of light production (killing) was observed
RRAAVVLIVIRR-NH2 (C-terminus assumed) [Bac020],MIC P. aeruginosa,[1]; PAO1,7 µg/mL
same,MIC P. aeruginosa Muller Hinton Media,[1]; PAO1,7 µg/mL
same,MIC P. aeruginosa With 10 μM Mg,[1]; PAO1,2 µg/mL
same,MIC P. aeruginosa With 2 mM Mg,[1]; PAO1,8 µg/mL
same,MIC against P. aeruginosa,[1]; PAO1,7 µg/mL
same,MIC E. faecalis,[2]; ATCC29212,8 µg/mL
same,MIC S. aureus,[3]; ATCC25923,5 µg/mL
same,MIC S. typhimurium,[4]; ssp. Typhimurium,18 µg/mL
same,MIC S. epidermidis,[5],1.5 µg/mL
same,MIC C. albicans,Candida albicans,11 µg/mL
same,cytotoxic effect against a human macrophage cell line,[9],no cytotoxic effect
